Measured values: patent US9238039B2, “Pyrazolo[1,5-A]pyrimidines for antiviral treatment” (Gilead Sciences, Inc., priority 2010, dated 2016)

Test system: RSV strain A2
Assay: RSV antiviral cytoprotection assay in Hep2 cells (96-well and 384-well format, Cell TiterGlo read-out)
Format: cell-based, Respiratory Syncytial Virus (RSV)
Conditions: human respiratory syncytial virus; for inhibition at 0.5 µM: HEp-2, 0.5 uM, RSV-induced cytopathic effect in Hep2 cells, calculated from fitted dose response curve, normalized to 0% and 100%; for EC50: HEp-2, RSV-induced cytopathic effects, Hep2 cells, class symbols

SMILES | inhibition at 0.5 µM [%] | EC50 [nM]
Cc1cn2nc([C@@H]3CCCCN3C(=O)c3cc(Cl)ccc3NS(C)(=O)=O)cc2nc1N1CC(C)(O)C1 [Compound 96] | 97 | 0.1 to 100
Cc1cn2nc([C@@H]3CCCCN3C(=O)c3ccc(Cn4cccn4)o3)cc2nc1N1CC[C@H](N)C1 [Compound 396] | 99 | 0.1 to 100
Cc1cn2nc([C@@H]3CCCCN3C(=O)c3cc(Cl)ccc3NS(C)(=O)=O)cc2nc1N1CCCC(O)C1 (stereo partly drawn) [Compound 217] | 89 | 101 to 1000
Cc1ccc(NS(C)(=O)=O)c(C(=O)N2Cc3ccccc3C[C@H]2c2cc3nc(C)c(C)c(N(C)C)n3n2)c1 [Compound 34] | 91 | 0.1 to 100
Cc1cn2nc([C@@H]3CCCCN3C(=O)c3ocnc3C)cc2nc1N1CC[C@H](N)C1 [Compound 265] | 100 | 0.1 to 100
Cc1cn2nc([C@@H]3CC[C@H](C)CN3C(=O)c3cc(Cl)ccc3NS(C)(=O)=O)cc2nc1N1CC[C@@H](O)C1 [Compound 136] | 100 | 0.1 to 100
CS(=O)(=O)Nc1ccc(Cl)cc1C(=O)N1CCCC[C@H]1c1cc2nc(N3CCC3)cc(N3CC[C@H](N)C3)n2n1 [Compound 227] | 100 | 0.1 to 100
Cc1cn2nc([C@@H]3CCCCN3C(=O)c3cc(Cl)ccc3NS(C)(=O)=O)cc2nc1-c1ccccc1 [Compound 134] | 98 | 0.1 to 100
Cc1cn2nc([C@@H]3CCCCN3C(=O)c3cc4cccnc4s3)cc2nc1N1CC[C@H](N)C1 [Compound 362] | 100 | 0.1 to 100
Cc1cn2nc([C@@H]3CCCCN3C(=O)c3scnc3C)cc2nc1N1CC[C@H](N)C1 [Compound 287] |  | 1000 to 10000
CS(=O)(=O)Nc1ccc(Cl)cc1C(=O)N1CCCC[C@H]1c1cc2nc(N3CCC3)cc(N3CCOC3)n2n1 [Compound 74] | 100 | 0.1 to 100
COC(=O)Nc1ccc(Cl)cc1C(=O)N1CCCC[C@H]1c1cc2nc(N3CC[C@H](N)C3)c(C)cn2n1 [Compound 220] | 100 | 0.1 to 100
Cc1ccc(NS(C)(=O)=O)c(C(=O)N2Cc3ccccc3C[C@H]2c2cc3[nH]c(C)c(C)c(=O)n3n2)c1 [Compound 33] | 98 | 0.1 to 100
Cc1cn2nc([C@@H]3CCCCN3C(=O)c3ccc4[nH]c(C)c(C)c4c3)cc2nc1N1CC[C@H](N)C1 [Compound 386] | 97 | 0.1 to 100
Cc1cn2nc([C@@H]3CCCCN3C(=O)c3cc(Cl)ccc3NS(C)(=O)=O)cc2nc1N1CCC[C@H]1C#N [Compound 200] | 95 | 0.1 to 100
Cc1cn2nc([C@@H]3CCCCN3C(=O)c3ccc4c(c3)nnn4C)cc2nc1N1CC[C@H](N)C1 [Compound 359] | 100 | 0.1 to 100
Cc1cn2nc([C@@H]3CCCCN3C(=O)c3cc(Cl)ccc3NS(C)(=O)=O)cc2nc1N1CC(OC(=O)CN)C1 [Compound 172] | 100 | 0.1 to 100
Cc1cn2nc([C@@H]3CCCCN3C(=O)c3cn4ccsc4n3)cc2nc1N1CC[C@H](N)C1 [Compound 327] | 100 | 0.1 to 100
CCn1cc(C(=O)N2CCCC[C@H]2c2cc3nc(N4CC[C@H](N)C4)c(C)cn3n2)cn1 [Compound 281] | 37 | 101 to 1000
Cc1cc(C2CC2)nc2cc([C@@H]3CCCCN3C(=O)C(NS(C)(=O)=O)c3ccccc3)nn12 (stereo partly drawn) [Compound 241] | 99 | 0.1 to 100
Cc1cn2nc([C@@H]3CCCCN3C(=O)c3cn(C)nc3C(F)(F)F)cc2nc1N1CC[C@H](N)C1 [Compound 402] | 99 | 0.1 to 100

SMILES | inhibition at 0.5 µM [%] | EC50 [nM]
CS(=O)(=O)Nc1ccc(Cl)cc1C(=O)N1CCCC[C@H]1c1cc2nc(N3CCC3)cc(CO)n2n1 [Compound 254] | 90 | 0.1 to 100
Cc1ccc(NS(C)(=O)=O)c(C(=O)N2CCCC[C@H]2c2cc3nc(C)c(C)c(N4CCOCC4)n3n2)c1 [Compound 104] | 100 | 0.1 to 100
Cc1cn2nc([C@@H]3CCCCN3C(=O)c3n[nH]c4c3CCC4)cc2nc1N1CC[C@H](N)C1 [Compound 296] | 49 | 101 to 1000
CS(=O)(=O)Nc1ccc(Cl)cc1C(=O)N1CCCC[C@H]1c1cc2nc(N3CCC3)cc(N3CCCNCC3)n2n1 [Compound 156] | 100 | 0.1 to 100
Cc1cn2nc([C@@H]3CCCCN3C(=O)c3cc(Cl)ccc3NS(C)(=O)=O)cc2nc1N1CC[C@H](N)C1 [Compound 202] | 100 | 0.1 to 100
Cc1ccc(NS(C)(=O)=O)c(C(=O)N2CCCC[C@H]2c2cc3nc(N4CC[C@H](N)C4)c(C)cn3n2)c1 [Compound 190] | 100 | 0.1 to 100
Cc1cn2nc([C@@H]3CCCCN3C(=O)c3cc(Br)ccc3NS(C)(=O)=O)cc2nc1N1CC(O)C1 [Compound 168] | 100 | 0.1 to 100
Cc1ccc(NS(C)(=O)=O)c(C(=O)N2CCC(C)CC2c2cc3[nH]c(C)c(C)c(=O)n3n2)c1 (stereo not drawn) [Compound 89] | 100 | 0.1 to 100
Cc1cn2nc([C@@H]3CCCCN3C(=O)c3cc(C)n(C)n3)cc2nc1N1CC[C@H](N)C1 [Compound 280] | 60 | 101 to 1000
CS(=O)(=O)Nc1ccc(Cl)cc1C(=O)N1CCCC[C@H]1c1cc2nc(N3CCC3)cc(N3CC(N)C(C(=O)N4CCC4)C3)n2n1 (stereo partly drawn) [Compound 164] | 100 | 0.1 to 100
Cc1ccc(NS(C)(=O)=O)c(C(=O)N2CCCC[C@H]2c2cc3nc(N4CCC4)cc(N4CCOCC4)n3n2)c1 [Compound 194] | 100 | 0.1 to 100
CCc1ccc(NS(C)(=O)=O)c(C(=O)N2CCCC[C@H]2c2cc3nc(C4CC4)cc(C)n3n2)c1 [Compound 115] | 100 | 0.1 to 100
Cc1cc(C2CC2)nc2cc([C@@H]3CCCCN3C(=O)c3cc(N)ccc3NS(C)(=O)=O)nn12 [Compound 114] | 100 | 0.1 to 100
CS(=O)(=O)Nc1ccc(Cl)cc1C(=O)N1CCCC[C@H]1c1cc2nc(C3CCC3)cc(N3CCOCC3)n2n1 [Compound 73] | 99 | 0.1 to 100
Cc1cc(C(=O)N2CCCC[C@H]2c2cc3nc(N4CC[C@H](N)C4)c(C)cn3n2)no1 [Compound 264] | 53 | 101 to 1000
Cc1cn2nc([C@@H]3CCCCN3C(=O)c3cc(-c4cccs4)n[nH]3)cc2nc1N1CC[C@H](N)C1 [Compound 404] | 100 | 0.1 to 100
CCCn1cc(Cl)c(C(=O)N2CCCC[C@H]2c2cc3nc(N4CC[C@H](N)C4)c(C)cn3n2)n1 [Compound 381] | 100 | 0.1 to 100
Cc1cn2nc([C@@H]3CCCCN3C(=O)c3cc4ccccn4n3)cc2nc1N1CC[C@H](N)C1 [Compound 312] | 100 | 0.1 to 100
CS(=O)(=O)Nc1ccc(Cl)cc1C(=O)N1CCCC[C@H]1c1cc2nc(N3CCC3)cc(N3CCN(CC(F)(F)F)CC3)n2n1 [Compound 84] | 100 | 0.1 to 100
Cc1cc(C2CC2)nc2cc([C@@H]3CCCCN3C(=O)c3cc(F)cc(Br)c3NS(C)(=O)=O)nn12 [Compound 121] | 97 | 0.1 to 100
